From paper PMC9024597, “The Biological Fate of a Novel Anticancer Drug Candidate TNBG-5602: Metabolic Profile, Interaction with CYP450, and Pharmacokinetics in Rats” (Molecules, 2022)

Assays:
[1] = In vivo metabolites in rat urine and feces by UPLC-Q-TOF-MS/MS; conditions: rats; for metabolite detected in feces: TNBG-5602 i.v. 4.8 mg kg^−1, feces 0-24 h
Procedure: An Exion LC^TM AC UPLC system (AB Sciex, Framingham, MA, USA) coupled with an […] Q-TOF tandem mass spectrometer was used for qualitative analysis in this study. Chromatographic separation was carried out on an ACQUITY UPLC HSS T3 column (2.1 × 75 mm, 1.8 μm, Waters, Wexford, Ireland). […] The column temperature was set to 35 °C. The injection volume was 5 μL. A full scan was performed over m/z 100-1000 for precursor ions in positive mode with a spray voltage of 5.5 kV, collision energy (CE) of 35 V, CE spread of 15 V, and accumulation time of 0.05 s. The Q-TOF scan for product ions was performed over m/z 100-1200 with CE 10 V and an accumulation time of 0.1 s. For the structural identification of metabolites, the UPLC-Q-TOF-MS/MS data were acquired and processed via SCIEX OS (Version 1.7, AB Sciex, Redwood City, CA, USA). The raw data files were imported into SCIEX OS 2.1 to search for and identify the metabolites of TNBG-5602. Identification of the chemical structure included two steps. The first step was automatic prediction, while the second step was manual validation. In Step 1, the candidate metabolites were predicted by the software based on the typical metabolic reactions of the templates. In Step 2, an ion chromatogram was extracted to screen candidate metabolites with mass tolerance within 5 ppm, using blank samples for the subtraction of the background. Then, the MS/MS fragment ions were extracted for the structural confirmation of candidate metabolites. […] The urine and feces samples were collected before administration (0 h) and at 8, 12, and 24 h after intravenous injection. The urine samples were vortex mixed with acetonitrile at a ratio of 1:3 (v/v) for 15 min. The mixture was then centrifuged at 15,000 rpm for 10 min, and the supernatant was dried using a gentle flow of nitrogen. The residue was dissolved in acetonitrile and vortex mixed again. The supernatant was dried again and re-dissolved in 0.1% aqueous formic acid: acetonitrile (50:50, v/v). The treated sample solutions were stored at -20 °C until analysis. A 5 μL aliquot of the thawed sample solution was injected into the UPLC-Q-TOF-MS/MS device to analyze the metabolites. The feces samples were homogenized with pure water at a ratio of 1:1 (w/w). The homogenate was vortex mixed with acetonitrile at a ratio of 1:3 (w/v) for 15 min. The mixture was then centrifuged at 15,000 rpm for 10 min, and the supernatant was dried using a gentle flow of nitrogen. The residue was dissolved with acetonitrile and vortex mixed again. The supernatant was dried again and re-dissolved in 0.1% aqueous formic acid: acetonitrile (50:50, v/v). The treated sample solutions were stored at -20 °C until analysis. A 5-μL aliquot of the thawed sample solution was injected into the UPLC-Q-TOF-MS/MS device to analyze the metabolites.

CYP4V2 = biological target: T1, CYP4V2 (Homo sapiens, UniProt Q6ZWL3); test: Metabolite formation on incubation with recombinant CYP; format: in vitro ADME; conditions: TNBG-5602 5 μg mL^−1, recombinant CYP 0.025 μM, 37 °C, 60 min
T1 construct: purchased Abnova P01
T1 sequence (Q6ZWL3 1-525): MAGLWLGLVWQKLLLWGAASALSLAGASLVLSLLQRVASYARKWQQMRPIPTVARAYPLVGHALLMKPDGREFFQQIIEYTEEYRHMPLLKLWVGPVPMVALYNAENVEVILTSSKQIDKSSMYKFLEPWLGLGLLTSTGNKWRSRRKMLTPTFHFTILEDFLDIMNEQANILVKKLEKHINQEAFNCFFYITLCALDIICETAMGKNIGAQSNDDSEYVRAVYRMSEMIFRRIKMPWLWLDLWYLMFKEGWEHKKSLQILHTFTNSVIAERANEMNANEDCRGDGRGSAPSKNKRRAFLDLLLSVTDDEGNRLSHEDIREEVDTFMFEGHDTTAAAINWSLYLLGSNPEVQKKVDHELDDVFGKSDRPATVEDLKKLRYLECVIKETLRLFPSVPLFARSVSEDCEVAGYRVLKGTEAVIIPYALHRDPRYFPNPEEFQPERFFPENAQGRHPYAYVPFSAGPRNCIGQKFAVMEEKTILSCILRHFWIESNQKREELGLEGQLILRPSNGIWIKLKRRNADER
Procedure: (§1) An Exion LC^TM AC UPLC system (AB Sciex, Framingham, MA, USA) coupled with an […] Q-TOF tandem mass spectrometer was used for qualitative analysis in this study. Chromatographic separation was carried out on an ACQUITY UPLC HSS T3 column (2.1 × 75 mm, 1.8 μm, Waters, Wexford, Ireland). […] The column temperature was set to 35 °C. The injection volume was 5 μL. A full scan was performed over m/z 100-1000 for precursor ions in positive mode with a spray voltage of 5.5 kV, collision energy (CE) of 35 V, CE spread of 15 V, and accumulation time of 0.05 s. The Q-TOF scan for product ions was performed over m/z 100-1200 with CE 10 V and an accumulation time of 0.1 s. For the structural identification of metabolites, the UPLC-Q-TOF-MS/MS data were acquired and processed via SCIEX OS (Version 1.7, AB Sciex, Redwood City, CA, USA). The raw data files were imported into SCIEX OS 2.1 to search for and identify the metabolites of TNBG-5602. Identification of the chemical structure included two steps. The first step was automatic prediction, while the second step was manual validation. In Step 1, the candidate metabolites were predicted by the software based on the typical metabolic reactions of the templates. In Step 2, an ion chromatogram was extracted to screen candidate metabolites with mass tolerance within 5 ppm, using blank samples for the subtraction of the background. Then, the MS/MS fragment ions were extracted for the structural confirmation of candidate metabolites. The stock solution of TNBG-5602 ([…]) was prepared using 0.1% aqueous formic acid. Then, the stock solution was diluted with PBS buffer to make the working solution of TNBG-5602 (1 mg mL^-1). The working solution of TNBG-5602 was incubated with CYP2D6, CYP3A4, CYP2C9, and CYP4V2 recombinant cytochrome enzymes, respectively. The total incubation volume for each reaction was 200 μL, containing TNBG-5602 (final concentration: 5 μg mL^-1), cytochrome P450s (final concentration: 0.025 μM), 3.3 mM MgCl2, 1.3 mM NADPH, 3.3 mM glucose-6-phosphate, 0.4 U mL^-1 glucose-6-phosphate dehydrogenase, and 0.05 mM sodium citrate. The cytochrome P450s were thawed on an ice bath and pre-incubated at 37 °C for 5 min. The mixtures were pre-incubated at 37 °C for 5 min before adding NADPH to initiate the reaction. NADPH was pre-incubated at 37 °C for 5 min and then added into the incubation system to initiate the reaction. The incubation periods were 60 min, and the reactions were quenched by adding 200 μL of iced acetonitrile. The samples were centrifuged (12,000× g rpm, 4 °C) for 10 min, and the supernatant was analyzed via the qualitative LC-MS/MS method. Blank samples in the absence of TNBG-5602 were incubated and followed by the same treatment.

CYP2C9 = biological target: T2, CYP2C9 (Homo sapiens, UniProt P11712); test: as above; format: in vitro ADME; conditions: TNBG-5602 5 μg mL^−1, recombinant CYP 0.025 μM, 37 °C, 60 min
T2 construct: purchased IPHASE
Procedure: as §1

CYP2D6 = biological target: T3, CYP2D6 (Homo sapiens, UniProt P10635); test: as above; format: in vitro ADME; conditions: TNBG-5602 5 μg mL^−1, recombinant CYP 0.025 μM, 37 °C, 60 min
T3 construct: purchased IPHASE
Procedure: as §1

CYP3A4 = biological target: T4, CYP3A4 (Homo sapiens, UniProt P08684); test: as above; format: in vitro ADME; conditions: TNBG-5602 5 μg mL^−1, recombinant CYP 0.025 μM, 37 °C, 60 min
T4 construct: purchased IPHASE
Procedure: as §1

T3 sequence (P10635 whole entry): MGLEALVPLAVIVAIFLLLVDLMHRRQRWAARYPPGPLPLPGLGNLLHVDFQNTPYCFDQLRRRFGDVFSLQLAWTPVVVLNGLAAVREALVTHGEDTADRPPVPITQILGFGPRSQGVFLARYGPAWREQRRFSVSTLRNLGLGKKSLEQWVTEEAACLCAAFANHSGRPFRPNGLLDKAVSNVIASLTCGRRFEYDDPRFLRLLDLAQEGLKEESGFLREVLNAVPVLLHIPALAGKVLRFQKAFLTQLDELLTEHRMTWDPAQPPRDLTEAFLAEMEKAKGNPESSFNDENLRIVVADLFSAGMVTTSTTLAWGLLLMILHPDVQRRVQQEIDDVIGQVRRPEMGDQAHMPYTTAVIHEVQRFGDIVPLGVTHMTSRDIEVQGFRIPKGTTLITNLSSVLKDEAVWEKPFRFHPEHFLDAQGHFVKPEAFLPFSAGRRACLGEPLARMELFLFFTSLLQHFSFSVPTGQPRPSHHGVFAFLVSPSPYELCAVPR
T2 sequence (P11712 whole entry): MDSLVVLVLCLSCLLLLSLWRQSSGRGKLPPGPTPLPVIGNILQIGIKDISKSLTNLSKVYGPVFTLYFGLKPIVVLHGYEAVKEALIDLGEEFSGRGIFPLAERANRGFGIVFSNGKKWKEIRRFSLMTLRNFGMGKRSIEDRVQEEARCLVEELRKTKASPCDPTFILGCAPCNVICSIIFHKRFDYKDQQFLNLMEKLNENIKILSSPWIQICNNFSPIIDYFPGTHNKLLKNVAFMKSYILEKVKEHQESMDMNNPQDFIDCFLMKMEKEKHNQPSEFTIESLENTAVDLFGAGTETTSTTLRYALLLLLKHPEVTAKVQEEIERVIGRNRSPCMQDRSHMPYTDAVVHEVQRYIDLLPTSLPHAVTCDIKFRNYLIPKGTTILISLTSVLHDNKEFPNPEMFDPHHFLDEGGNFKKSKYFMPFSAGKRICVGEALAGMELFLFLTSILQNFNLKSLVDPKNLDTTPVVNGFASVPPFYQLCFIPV
T4 sequence (P08684 whole entry): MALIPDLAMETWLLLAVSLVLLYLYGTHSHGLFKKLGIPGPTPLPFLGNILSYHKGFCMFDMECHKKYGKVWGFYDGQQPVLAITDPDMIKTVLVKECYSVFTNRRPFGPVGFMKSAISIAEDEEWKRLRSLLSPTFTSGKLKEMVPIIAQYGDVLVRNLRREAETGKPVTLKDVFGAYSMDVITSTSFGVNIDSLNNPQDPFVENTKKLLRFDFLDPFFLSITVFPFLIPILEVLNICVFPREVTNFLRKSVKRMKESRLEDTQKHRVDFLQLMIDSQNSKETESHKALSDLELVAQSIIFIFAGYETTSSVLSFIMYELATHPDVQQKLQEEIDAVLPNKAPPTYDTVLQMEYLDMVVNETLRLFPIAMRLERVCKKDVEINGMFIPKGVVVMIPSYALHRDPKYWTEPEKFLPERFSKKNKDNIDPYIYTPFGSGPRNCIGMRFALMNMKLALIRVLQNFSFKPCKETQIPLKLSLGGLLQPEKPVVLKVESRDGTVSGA

SMILES	rank of metabolite in the feces (major/minor) ([1]; TNBG-5602 i.v.)	rank of metabolite in the urine ([1]; TNBG-5602 i.v.)	metabolite detected in feces [1]	metabolite detected in urine ([1]; TNBG-5602 i.v. 4.8 mg kg^−1, urine 0-24 h)	metabolite detected after incubation with CYP4V2 (CYP4V2)	metabolite detected after incubation with CYP2C9 (CYP2C9)	metabolite detected after incubation with CYP2D6 (CYP2D6)	metabolite detected after incubation with CYP3A4 (CYP3A4)
CNCCN1CC2c3ccccc3CCN2c2nc3ccccc3nc21 (centres unmarked) [M5]	major	main	present and ×	present and ×	found and ×	found and ×	observed and ×	obtained and ×
CN1CCN2CC3c4ccccc4CCN3C3=Nc4ccccc4NC312 (centres unmarked) [M6]	minor		×					
c1ccc2c(c1)CCN1c3nc4ccccc4nc3N(CCN3COC3)CC21 (centres unmarked) [M7]	minor		×					
CN(C=O)CCN1CC2c3ccccc3CCN2c2nc3ccccc3nc21 (centres unmarked) [M8]	minor		×					
